From patent US9809616B2, “Pyrimidine nucleosides and their monophosphate prodrugs for the treatment of viral infections and cancer” (Cocrystal Pharma, Inc., priority 2012, dated 2017) come the findings set out here.

The test system of the data set is Huh-7 cells. The data set is described as follows: LC/MS analysis of nucleotides formed after 4 hr incubation of 50 μM drug in Huh-7 cells. It is filed as in vitro ADME. The conditions noted are these: 4 hr incubation in Huh-7 cells. The method, then: Shown below are two examples of the LC/MS qualitative analysis of nucleotides formed after 4 h incubation of 50 μM N^4-hydroxycytidine nucleosides and N^4-hydroxycytidine monophosphate prodrugs in Huh-7 cells.

For `C[C@@]1(O)[C@H](O)[C@@H](CO)O[C@H]1n1ccc(NO)nc1=O` [Compound 37, 1-((2R,3R,4R,5R)-3,4-dihydroxy-5-(hydroxymethyl)-3-methyltetrahydrofuran-2-yl)-4-(hydroxyamino)pyrimidin-2(1H)-one], the “Metabolite 2′-OH-2′-Me-U formed in cells” value was “BLOQ”, the “Metabolite 2′-OH-2′-Me-UDP formed in cells” value is “BLOQ”, the “Metabolite 2′-OH-2′-Me-UMP formed in cells” value is given as “BLOQ” and the “Metabolite 2′-OH-2′-Me-UTP formed in cells” value is “BLOQ”. In addition, the “Metabolite 36-DP formed in cells” value was “BLOQ”, the “Metabolite 36-MP formed in cells” value is listed as “BLOQ”, the “Metabolite 36-TP formed in cells” value is “BLOQ” and the “Metabolite 36 formed in cells” value is listed as “BLOQ”. Besides, the “Metabolite 37-DP formed in cells” value is “BLOQ”, the “Metabolite 37-MP formed in cells” value was “BLOQ” and the “Metabolite 37 in cells” value is “BLOQ”.

Regarding `C[C@@]1(F)[C@H](O)[C@@H](CO)O[C@H]1n1ccc(NO)nc1=O` [Compound 39, 1-((2R,3R,4R,5R)-3-fluoro-4-hydroxy-5-(hydroxymethyl)-3-methyltetrahydrofuran-2-yl)-4-(hydroxyamino)pyrimidin-2(1H)-one], the “Metabolite 2′-F-2′-Me-U formed in cells” value was “BLOQ”, the “Metabolite 2′-F-2′-Me-UDP formed in cells” value was “BLOQ”, the “Metabolite 2′-F-2′-Me-UMP formed in cells” value is on record as “BLOQ” and the “Metabolite 38-MP formed in cells” value was “BLOQ”. The “Metabolite 38 formed in cells” value is listed as “BLOQ”, the “Metabolite 39-DP formed in cells” value was “BLOQ”, the “Metabolite 39-MP formed in cells” value was “BLOQ” and the “Metabolite 39-TP formed in cells” value was “BLOQ”.

As for `CCOC(=O)[C@H](C)NP(=O)(OC[C@H]1O[C@@H](n2ccc(NO)nc2=O)[C@](C)(F)[C@@H]1O)Oc1ccccc1` (stereo partly drawn) [Compound 51, (2S)-ethyl 2-(((((2R,3R,4R,5R)-4-fluoro-3-hydroxy-5-(4-(hydroxyamino)-2-oxopyrimidin-1(2H)-yl)-4-methyltetrahydrofuran-2-yl)methoxy)(phenoxy)phosphoryl)amino)propanoate], the “Metabolite 2′-F-2′-Me-U formed in cells” value is given as “BLOQ”, the “Metabolite 2′-F-2′-Me-UDP formed in cells” value is “BLOQ”, the “Metabolite 2′-F-2′-Me-UMP formed in cells” value was “BLOQ” and the “Metabolite 51 (prodrug) in cells” value came out at 71.5 ± 2.3 pmol/10^6 cells.

As to `CCOC(=O)[C@H](C)NP(=O)(OC[C@H]1O[C@@H](n2ccc(NO)nc2=O)[C@](C)(O)[C@@H]1O)Oc1ccccc1` (stereo partly drawn) [Compound 44, (2S)-ethyl 2-(((((2R,3R,4R,5R)-3,4-dihydroxy-5-(4-(hydroxyamino)-2-oxopyrimidin-1(2H)-yl)-4-methyltetrahydrofuran-2-yl)methoxy)(phenoxy)phosphoryl)amino)propanoate], the “Metabolite 2′-OH-2′-Me-U formed in cells” value is listed as “BLOQ”, the “Metabolite 2′-OH-2′-Me-UDP formed in cells” value is reported as “BLOQ”, the “Metabolite 2′-OH-2′-Me-UMP formed in cells” value is reported as “BLOQ” and the “Metabolite 36-MP formed in cells” value was “BLOQ”. The “Metabolite 36 formed in cells” value is given as “BLOQ”, the “Metabolite 37 in cells” value is listed as “BLOQ” and the “Metabolite 44 (prodrug) in cells” value is 13.3 ± 1.7 pmol/10^6 cells.
